Measurements published in patent publication US20250064777A1, “PHARMACEUTICAL COMPOSITION FOR TREATMENT OF CASTRATION-RESISTANT PROSTATE CANCER COMPRISING BRUCEANTIN AND NANOPARTICLES” (SAMSUNG LIFE PUBLIC WELFARE FOUNDATION, priority 2021, published 2025).
Like-named read-outs stand apart in the source and are kept apart here.

Assays:
nude mice [1] = test: Short-term toxicity of bruceantin and nano-bruceantin; assay type: in vivo; details: 5 mg/kg daily for 7 days, FIG. 3
Protocol: (§1) As Experimental Animals, 6-Week-Old Male Nude Mice (Orient Bio, Korea) were used.
Mice were divided into a nanoparticle-administered group (nano-Veh), a phosphate buffer saline-administered group (PBS), a nano-bruceantin-administered group (nano-BCT), and a bruceantin-administered group (free-BCT). The nano-BCT group was orally administered nano-bruceantin at 5 mg/kg daily for 7 days, and the free-BCT group was orally administered bruceantin at 5 mg/kg daily for 7 days.

AR/AR-V7 [2] = details: androgen-dependent LNCaP cells; KR 10-2020-0139625; cited from earlier work
AR-V7 [3] = test: Immunoblotting for AR-V7 in 22RV1 cells; assay type: cell-based; details: various concentrations, FIG. 8
Protocol: (§2) Castration-resistant prostate cancer cell line 22RV1 cells were cultured with RPMI-1640 (Welgene) medium containing 10% fetal bovine serum (FBS) (Welgene) and 1% penicillin/streptomycin.
(§3) Castration-resistant prostate cancer cell line 22RV1 cells were treated with various concentrations of each of bruceantin (BCT), nano-bruceantin 1 (nano-BCT #1), and nano-bruceantin 2 (nano-BCT #2) and subjected to cell growth inhibition assay and colony formation assay. Reporter gene assay was performed by transfecting 22RV1 cells with an MMTV-LUC reporter, which can measure the transcriptional activities of AR and AR-V7, and treating the cells with various concentrations of each of BCT, nano-BCT #1, and nano-BCT #2 depending on the presence or absence of the androgen dihydrotestosterone (DHT) (DHT+, AR transcriptional activity measurement condition; DHT−, AR-V7 transcriptional activity measurement condition). Immunoblotting was performed by treating 22RV1 cells with various concentrations of each of BCT and nano-BCT, extracting protein from the cells, electrophoresise protein on 4 to 12% SDS-PAGE gel, and transferring the electrophoresed protein to a PVDF membrane, followed by incubation with antibody.

AR/AR-V7 [4] = details: castration-resistant prostate cancer cell line 22RV1 cells; KR 10-2020-0139625; cited from earlier work
AR-V7 [5] = test: MMTV-LUC reporter gene assay, DHT− (AR-V7 transcriptional activity); assay type: cell-based; details: 22RV1 cells, FIG. 7
Protocol: as §2, §3

22RV1 cells [6] = test: Colony formation assay; assay type: cell-based; details: various concentrations, FIG. 6
Protocol: as §2, §3

nude mice [7] = test: Long-term toxicity of bruceantin and nano-bruceantin; assay type: in vivo; details: 2 mg/kg every two days for 17 days, FIG. 4
Protocol: as §1
The nano-BCT group was orally administered nano-bruceantin at 2 mg/kg every two days for 17 days, and the free-BCT group was orally administered bruceantin at 2 mg/kg every two days for 17 days.

[8] = Solubility of nano-bruceantin in aqueous solution (visual examination, UV-Vis spectroscopy); assay type: physicochemical
22RV1 cells [9] = test: Cell growth inhibition assay; assay type: cell-based; details: concentration of 10 nM or more, FIG. 5
Protocol: as §2, §3

CWR22RV1 = CWR22RV1 xenograft mice: tumor volume and bioluminescence; assay type: in vivo; details: oral, 2 mg/kg every two days for 19 days
Protocol: Castration-resistant prostate cancer cell line CWR22RV1 was purchased from ATCC (USA), and xenograft mice were constructed by subcutaneously injecting CWR22RV1 into nude mice.
The xenograft mice were divided into a nanoparticle-treated group (nano-Veh), a control group (free-Veh), a nano-bruceantin-treated group (nano-BCT), and a bruceantin-treated group (free-BCT). The nano-BCT group and the free-BCT group were orally administered nano-bruceantin and bruceantin, respectively, at 2 mg/kg every two days for 19 days. Thereafter, tumor volume and bioluminescence were measured for each treated group.

AR [10] = test: Immunoblotting for AR in 22RV1 cells; assay type: cell-based; details: various concentrations, FIG. 8
Protocol: as §2, §3

AR [11] = test: MMTV-LUC reporter gene assay, DHT+ (AR transcriptional activity); assay type: cell-based; details: 22RV1 cells, FIG. 7
Protocol: as §2, §3

COC(=O)[C@@]12OC[C@]34[C@H]([C@@H](O)[C@@H]1O)[C@@]1(C)CC(=O)C(O)=C(C)[C@@H]1C[C@H]3OC(=O)[C@H](OC(=O)/C=C(\C)C(C)C)[C@@H]24 [bruceantin]
side effects upon short-term oral administration (nude mice [1]): accompanied by acute side effects such as exophthalmos, sudden death, and weight loss | transcriptional activity of AR/AR-V7 (AR/AR-V7 [2]): simultaneously and strongly inhibit | AR-V7 protein (immunoblotting) (AR-V7 [3]): decreased | transcriptional activity of AR/AR-V7 (AR/AR-V7 [4]): simultaneously and strongly inhibit | AR-V7 transcriptional activity (reporter gene), compared between groups (AR-V7 [5]): no significant difference | colony formation, compared between groups (22RV1 cells [6]): no significant difference | side effects upon long-term oral administration (nude mice [7]): accompanied by side effects such as exophthalmos, sudden death, and weight loss | solubility [8]: < 100 µg/mL | cell growth inhibitory effect, compared between groups (22RV1 cells [9]): similar | tumor volume (CWR22RV1; FIG. 9): decrease in tumor volume was from day 13 | bioluminescence (CWR22RV1; FIG. 10): decrease in bioluminescence | AR protein (immunoblotting) (AR [10]): decreased | AR transcriptional activity (reporter gene), compared between groups (AR [11]): no significant difference
